Data on 31 molecules can be found in US6605601B2, “A1 adenosine receptor antagonists” (Biogen, Inc., priority 2000, dated 2003).

Each structure is given as a SMILES string.

This assay deals with T1, rat A1 adenosine receptor (Rattus norvegicus, UniProt P25099).
T1 construct: Membranes were prepared from rat cerebral cortex isolated from freshly euthanized rats; from tissue; host or cells: rat cerebral cortex
T1 sequence (P25099 1-326): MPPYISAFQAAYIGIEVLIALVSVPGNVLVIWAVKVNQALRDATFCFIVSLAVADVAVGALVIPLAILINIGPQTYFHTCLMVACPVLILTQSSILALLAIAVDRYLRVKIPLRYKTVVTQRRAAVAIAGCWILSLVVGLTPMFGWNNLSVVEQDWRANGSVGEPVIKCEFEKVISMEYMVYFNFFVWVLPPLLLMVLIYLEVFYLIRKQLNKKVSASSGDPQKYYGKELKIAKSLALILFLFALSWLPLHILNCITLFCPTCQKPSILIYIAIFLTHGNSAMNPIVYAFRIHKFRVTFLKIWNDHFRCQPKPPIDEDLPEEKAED
Description: Radioligand ([3H]DPCPX) competition binding assay on rat A1 adenosine receptor (rat cerebral cortex membranes). Conditions: for % specific radioligand binding remaining at 1 µM: 2.5 h, % of total specific radioligand binding remaining at 1 μM of competing compound; for Ki: [3H]DPCPX 1 nM, Cheng-Prusoff from IC50. How it is done:
For some of these compounds, the Ki values for rat and human adenosine A1 receptors were determined according to the following binding assay protocol.
Rat A1 Receptor: Membranes were prepared from rat cerebral cortex isolated from freshly euthanized rats. Tissues were homogenized in buffer A (10 mM EDTA, 10 mM Na-HEPES, pH 7.4) supplemented with protease inhibitors (10 μg/ml benzamidine, 100 μM PMSF, and 2 μg/ml each of aprotinin, pepstatin and leupeptin), and centrifuged at 20,000×g for 20 min. Pellets were resuspended and washed twice with buffer HE (10 mM Na-HEPES, 1 mM EDTA, pH 7.4, plus protease inhibitors). Final pellets were resuspended in buffer HE, supplemented with 10% (w/v) sucrose and protease inhibitors, and frozen in aliquots at −80° C. Protein concentrations were measured using BCA protein assay kit (Pierce).
Membranes (50 μg membrane protein for rat A1ARs, and 25 μg of CHO-K1 membrane protein for human A1ARs), radioligands and varying concentrations of competing ligands were incubated in triplicates in 0.1 ml buffer HE plus 2 units/ml adenosine deaminase for 2.5 h at 21° C. Radioligand [^3H]DPCPX (112 Ci/mmol from NEN, final concentration: 1 nM) was used for competition binding assays on A1ARs. Nonspecific binding was measured in the presence of 10 μM BG9719. Binding assays were terminated by filtration over Whatman GF/C glass fiber filters using a BRANDEL cell harvester. Filters were rinsed three times with 3-4 ml ice-cold 10 mM Tris-HCl, pH 7.4 and 5 mM MgCl2 at 4° C. Filter paper was transferred to a vial, and 3 ml of scintillation cocktail ScintiVerseII (Fisher)was added. Radioactivity was counted in a Wallac β-counter.
For K1 Determinations: Competition binding data were fit to a single-site binding model and plotted using Prizm GraphPad.
For % Binding: For one-point binding assays, data were presented as % of total specific binding at 1 μM of competing compound: % of total =100* (Specific binding with 1 μM of competing compound/total specific binding). % binding represents the amount of bound radioligand remaining in the presence of 1 μM of competing antagonist.

On to `CCCN1C(=O)N2C(=NC[C@H]2C)c2[nH]c(C34CCC(O)(CC3)CC4)nc21` [Compound 14], for which the % specific radioligand binding remaining at 1 µM turned out to be 7.8% and affinity was put at a Ki of 68.5 nM.

Take `CCCN1C(=O)N2CCN=C2c2[nH]c(C34CCC(O)(CC3)CC4)nc21` [Compound 21]: the % specific radioligand binding remaining at 1 µM worked out at 12.2%.

`CCC[C@@H]1CN2C(=O)N(CCC)c3nc(C45CCC(C(=O)O)(CC4)CC5)[nH]c3C2=N1` [Compound 23] came in with a % specific radioligand binding remaining at 1 µM of 22.8%.

As to `CCCN1C(=O)N2CCCN=C2c2[nH]c(C34CCC(O)(CC3)CC4)nc21` [Compound 20], the % specific radioligand binding remaining at 1 µM amounted to 52.7%.

For `CCCN1C(=O)N2C[C@@H](CC)N=C2c2[nH]c(C34CCC(O)(CC3)CC4)nc21` [Compound 2, 7-Ethyl-2-(4-hydroxy-bicyclo[2.2.2]oct-1-yl)-4-propyl-1,4,6,7-tetrahydro-1,3,4,5a,8-pentaaza-as-indacen-5-one], the Ki – broadly, the dissociation constant of the complex between target and ligand, obtained from inhibition or displacement – came to 5.75 nM.

In the case of `CCCN1C(=O)N2C[C@@H](Cc3ccc(O)cc3)N=C2c2[nH]c(C34CCC(O)(CC3)CC4)nc21` [Compound 28], the % specific radioligand binding remaining at 1 µM was 36.3%.

For the molecule `CCCN1C(=O)N2C[C@@H](CC)N=C2c2[nH]c(C34CCC(CCC(=O)O)(CC3)CC4)nc21` [Compound 3, 3-[4-(7-Ethyl-5-oxo-4-propyl-4,5,6,7-tetrahydro-1H-1,3,4,5a,8-pentaaza-as-indacen-2-yl)-bicyclo[2.2.2]oct-1-yl]-propionic acid], the Ki came to 8.38 nM.

With `CCCN1C(=O)N2C[C@@H](CC)N=C2c2[nH]c(C34CCC(C(=O)O)(CC3)CC4)nc21` [Compound 10], the % specific radioligand binding remaining at 1 µM worked out at 6.2% and the Ki stood at 40.2 nM.

As to `CCCN1C(=O)N2CC[C@@H](C)N=C2c2[nH]c(C34CCC(O)(CC3)CC4)nc21` [Compound 31], the % specific radioligand binding remaining at 1 µM was 40%.

As to `CCCC[C@@H]1CN2C(=O)N(CCC)c3nc(C45CCC(O)(CC4)CC5)[nH]c3C2=N1` [Compound 19], the % specific radioligand binding remaining at 1 µM is 18.1%.

Molecule `CCCN1C(=O)N2C[C@@H](C(C)C)N=C2c2[nH]c(C34CCC(CCC(=O)O)(CC3)CC4)nc21` [Compound 5, 3-[4-(7-Isopropyl-5-oxo-4-propyl-4,5,6,7-tetrahydro-1H-1,3,4,5a,8-pentaaza-as-indacen-2-yl)-bicyclo[2.2.2]oct-1-yl]-propionic acid] displayed a % specific radioligand binding remaining at 1 µM of 1.9% and a Ki of 10.5 nM.

The molecule `CCCN1C(=O)N2C[C@@H](C(C)(C)C)N=C2c2[nH]c(C34CCC(O)(CC3)CC4)nc21` [Compound 16] displayed a Ki of 155 nM.

In the case of `CCCN1C(=O)N2C[C@@H](C(C)C)N=C2c2[nH]c(C34CCC(O)(CC3)CC4)nc21` [Compound 1, 2-(4-Hydroxy-bicyclo[2.2.2]oct-1-yl)-7-isopropyl-4-propyl-1,4,6,7-tetrahydro-1,3,4,5a,8-pentaaza-as-indacen-5-one], the inhibition constant (Ki) came to 4.4 nM.

On to `CCCN1C(=O)N2C[C@@H](c3ccccc3)N=C2c2[nH]c(C34CCC(O)(CC3)CC4)nc21` [Compound 13], for which the Ki turned out to be 68.3 nM.

As to `CCC[C@@H]1CN2C(=O)N(CCC)c3nc(C45CCC(O)(CC4)CC5)[nH]c3C2=N1` [Compound 11], the % specific radioligand binding remaining at 1 µM was determined as 3.7% and the Ki was 43.2 nM.

With `CCCN1C(=O)N2C[C@@H](CC)N=C2c2[nH]c(C34CCC(CC3)CC4)nc21` [Compound 9], the % specific radioligand binding remaining at 1 µM amounted to 0.1% and the Ki was 26.7 nM.

For `CCCN1C(=O)N2CCCCN=C2c2[nH]c(C34CCC(O)(CC3)CC4)nc21` [Compound 27], the % specific radioligand binding remaining at 1 µM was 16.3%.

As for `CCCN1C(=O)N2CCCN=C2c2[nH]c(C34CCC(C(=O)O)(CC3)CC4)nc21` [Compound 29], the % specific radioligand binding remaining at 1 µM was found to be 81.8%.

For the molecule `CCCN1C(=O)N2C[C@H](CC)N=C2c2[nH]c(C34CCC(C(=O)O)(CC3)CC4)nc21` [Compound 26], the % specific radioligand binding remaining at 1 µM came to 41.1%.

Molecule `CCCN1C(=O)N2C[C@@H](C(C)CC)N=C2c2[nH]c(C34CCC(O)(CC3)CC4)nc21` (stereo partly shown) [Compound 8] registered a % specific radioligand binding remaining at 1 µM of 1% and a Ki of 14.1 nM.

For `CCCN1C(=O)N2C[C@@H](C(C)C)N=C2c2[nH]c(C34CCC(C(=O)O)(CC3)CC4)nc21` [Compound 25], the % specific radioligand binding remaining at 1 µM amounted to 46.7%.

The molecule `CCCN1C(=O)N2C[C@@H](CC(C)C)N=C2c2[nH]c(C34CCC(O)(CC3)CC4)nc21` [Compound 17] yielded a Ki of 167 nM.

Molecule `CCCN1C(=O)N2C[C@H](CC)N=C2c2[nH]c(C34CCC(O)(CC3)CC4)nc21` [Compound 24] returned a % specific radioligand binding remaining at 1 µM of 11%.

`CCCN1C(=O)N2C[C@@H](C)N=C2c2[nH]c(C34CCC(O)(CC3)CC4)nc21` [Compound 4, 2-(4-Hydroxy-bicyclo[2.2.2]oct-1-yl)-7-methyl-4-propyl-1,4,6,7-tetrahydro-1,3,4,5a,8-pentaaza-as-indacen-5-one]: the Ki amounted to 9.92 nM.

For `CCCN1C(=O)N2C[C@@H](C)N=C2c2[nH]c(C34CCC(C(=O)O)(CC3)CC4)nc21` [Compound 22], the % specific radioligand binding remaining at 1 µM amounted to 24%.

Molecule `CCCN1C(=O)N2C[C@@H](C)N=C2c2[nH]c(C34CCC(CCC(=O)O)(CC3)CC4)nc21` [Compound 7] displayed a % specific radioligand binding remaining at 1 µM of 2.5% and a Ki of 13.7 nM.

In the case of `CCCN1C(=O)N2C[C@@H](Cc3ccccc3)N=C2c2[nH]c(C34CCC(O)(CC3)CC4)nc21` [Compound 18], the Ki is 708 nM.

`CCCN1C(=O)N2C(=NC[C@@H]2C)c2[nH]c(C34CCC(O)(CC3)CC4)nc21` [Compound 12] came in with a % specific radioligand binding remaining at 1 µM of 8.6% and a Ki of 51.3 nM.

`CCCN1C(=O)N2C[C@H](C(C)CC)N=C2c2[nH]c(C34CCC(O)(CC3)CC4)nc21` (stereo partly shown) [Compound 15] registered a % specific radioligand binding remaining at 1 µM of 7.7% and a Ki of 93 nM.

Molecule `CCCN1C(=O)N2CCN=C2c2[nH]c(C34CCC(C(=O)O)(CC3)CC4)nc21` [Compound 6, 4-(5-Oxo-4-propyl-4,5,6,7-tetrahydro-1H-1,3,4,5a,8-pentaaza-as-indacen-2-yl)-bicyclo[2.2.2]octane-l-carboxylic acid] had a % specific radioligand binding remaining at 1 µM of 2.6%.

Regarding `CCCN1C(=O)N2CCCCN=C2c2[nH]c(C34CCC(C(=O)O)(CC3)CC4)nc21` [Compound 30], the % specific radioligand binding remaining at 1 µM was found to be 71%.
